The target in this experiment is T1, sproBACE1 (soluble form of human BACE1) (Homo sapiens, UniProt P56817).
T1 construct: sBACE1, corresponding to amino acids 1-454; made in house; host or cells: Sf9 insect cells (baculovirus), secreted into the medium
The experiment is described as follows: Peptide Hydrolysis Assay (HTRF, EuK-biotin labeled APPsw substrate). Particulars: 7 nM sproBACE1, 25 nM EuK-biotin APPsw substrate, pH 5.0, 3 hr at 30° C. The class given is biochemical. The text has this: A predicted soluble form of human BACE1 (sBACE1, corresponding to amino acids 1-454) was generated from the full length BACE1 cDNA (full length human BACE1 cDNA in pcDNA4/mycHisA construct; University of Toronto) by PCR using the advantage-GC cDNA PCR kit (Clontech, Palo Alto, Calif.). A HindIII/PmeI fragment from pcDNA4-sBACE1myc/His was blunt ended using Klenow and subcloned into the StuI site of pFASTBACI(A) (Invitrogen). A sBACE1mycHis recombinant bacmid was generated by transposition in DH10Bac cells(GIBCO/BRL). Subsequently, the sBACE1 mycHis bacmid construct was transfected into sf9 cells using CellFectin (Invitrogen, San Diego, Calif.) in order to generate recombinant baculovirus. […]
Proteins, were eluted from the Q-sepharose column with Buffer B (20 mM HEPES, pH 8.0, 500 mM NaCl). […] Peak protein fractions as determined by the Bradford Assay (Biorad, CA) were concentrated using a Centricon 30 concentrator (Millipore). sBACE1 purity was estimated to be ˜90% as assessed by SDS-PAGE and Commassie Blue staining. […]
IC50 determinations for inhibitors, (I), were determined by measuring the percent change of the relative fluorescence at 665 nm divided by the relative fluorescence at 620 nm, (665/620 ratio), in the presence of varying concentrations of I and a fixed concentration of enzyme and substrate. […]
A general note: Time-resolved FRET reads energy transfer from a long-lived donor to a nearby acceptor.

Structures are written as SMILES.

T1 sequence (P56817 22-454): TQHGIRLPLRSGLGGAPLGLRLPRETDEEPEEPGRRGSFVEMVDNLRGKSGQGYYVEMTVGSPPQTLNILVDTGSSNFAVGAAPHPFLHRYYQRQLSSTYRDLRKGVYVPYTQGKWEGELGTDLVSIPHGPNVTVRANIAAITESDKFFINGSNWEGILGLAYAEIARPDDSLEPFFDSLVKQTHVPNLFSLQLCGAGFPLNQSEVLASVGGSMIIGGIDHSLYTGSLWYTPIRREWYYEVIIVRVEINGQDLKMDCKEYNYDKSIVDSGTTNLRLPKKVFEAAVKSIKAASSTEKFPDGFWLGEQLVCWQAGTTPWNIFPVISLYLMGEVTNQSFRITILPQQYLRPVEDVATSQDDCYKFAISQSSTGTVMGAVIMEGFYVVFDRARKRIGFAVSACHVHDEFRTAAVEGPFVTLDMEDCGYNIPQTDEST

The term IC50 denotes the midpoint of a concentration-inhibition curve. Regarding `CC(=O)N[C@@H](Cc1cc(F)cc(OCc2ccncc2)c1)[C@H](O)[C@@H]1NCCN(Cc2ccccc2)C1=O`, the IC50 worked out at 0.186 µM.

For the origin of these results see patent US8367712B2, “Substituted amide beta secretase inhibitors” (Merck, Sharp & Dohme, Corp., priority 2004, dated 2013).
